Data set [1] concerns the target T1, HRP-3 (Homo sapiens, UniProt Q9Y3E1).
T1 construct: The HRP-3 coding region was cloned into the pET30 vector using EcoRI and NdeI as restriction sites; made in house; host or cells: E. coli BL21
The experiment in a line: 3T3 migration in vitro assay: prevention of HRP-3 function by DNA duplexes. The data set is classed as cell-based, mouse. As to the method: All the four DNA duplexes were tested in our 3T3 migration in vitro assay to see if they were able to prevent HRP-3 function by binding its PWWP domain (FIG. 13). […] The third column on the left is the negative control.

The target of data set [2] is T1, HRP-3. The data set can be described thus: HUVEC migration assay with Duplex 1 and HRP-3. To be noted: 50 nM; data not shown. The data set is classed as cell-based.

Experimental findings from patent publication US8710021B2, “Inhibition of HRP-3 using modified oligonucleotides” (Bionucleon S.r.l., priority 2008, dated 2014) are described below.

T1 sequence (Q9Y3E1 whole entry): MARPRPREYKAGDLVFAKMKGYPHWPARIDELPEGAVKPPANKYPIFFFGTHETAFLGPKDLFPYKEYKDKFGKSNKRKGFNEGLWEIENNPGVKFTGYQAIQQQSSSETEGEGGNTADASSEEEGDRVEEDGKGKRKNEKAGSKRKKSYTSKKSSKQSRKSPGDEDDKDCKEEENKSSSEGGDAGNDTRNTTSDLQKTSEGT

Regarding “Duplex 1: short (15 bp) duplex DNA, the duplex of Lukasik et al., designed to target HRP3 (FIG. 12) (chain 1 TACAACACCCACAAA; chain 2 TTTGTGGGTGTTGTA; chain 1: DNA, backbone and methylation of C not given here; chain 2: DNA, backbone not given here) [reference compound]”, in the data set with HRP-3 [1], the “activity in abolishing the anti-migratory effect of HRP-3 on 3T3 cells” value is on record as “able to abolish the protein effect of HRP-3”. Moreover, the “migration of 3T3 cells in presence of HRP-3 and duplex” value in the data set with HRP-3 [1] (250 nM duplex with HRP-3) is on record as “comparable with the control with FBS”. Also, the “influence of the duplex alone on 3T3 migration compared to control with FBS” value with HRP-3 [1] (1000 nM, without HRP-3) was “does not have any influence on the migration”. Further, in the data set with HRP-3 [2], the “reversal of anti-migratory activity of HRP-3 on HUVEC” value is recorded as “restore totally”.
